From paper PMC3591457, “Biodistribution and Elimination Study of Fluorine-18 Labeled N^ε-Carboxymethyl-Lysine following Intragastric and Intravenous Administration” (PLoS ONE, 2013)

Tests used:
HepG2 cells = experiment: Cell uptake of ^18F-CML and native CML in HepG2 cells; type: cell-based; details: incubation 2 hours
Procedure: (§1) To compare the different bioactivities of CML and ^18F-CML, two cell lines were evaluated for their capacity to take up native CML and the fluorobenzoylated derivative ^18F-CML. RAW264.7 macrophages and HepG2 liver cells were cultured in DMEM/LOWGLUCOSE, supplemented with 10% fetal bovine serum (FBS), 4.0 mmol/L L-glutamine, 110 mg/L sodium pyruvate, 100 U/mL penicillin, and 100 mg/L streptomycin at 37°C and 5% CO2.
(§2) For ^18F-CML cell uptake studies, RAW264.7 cells and HepG2 cells were seeded into 24-well plates at a density of 4×10^5 cells per well. Radio-tracer ^18F-CML (0.5 µCi/well, 3 µmol/mL) was incubated in a 37°C water bath for 15, 30, 60, and 120 min. At each time point the cells were washed 3 times with phosphate-buffered saline (PBS). The supernatant, washing-up liquid (unbound activity) and the pellet (cell-bound activity) were transferred to new tubes. Triplicates of the counting tubes containing supernatant and cell pellet were counted individually using a gamma counter for 1 min. For the blocking experiment, the uptake was carried out in the presence of the non-radioactive CML(10 µmol/mL) and processed similarly as described above. The uptake (%) of radio-tracer into the cell was determined using a gamma counter according to the following equation: [drawing 1]
(§3) For CML cell uptake ratio studies, unaltered CML (10 µmol/mL) was added to RAW264.7 and HepG2 cell pellets individually. The total proteins of each cell line were initially extracted from the lysates of 4×10^5 cells. […] The supernatants were purified and detected usingby the method described by Drusch et al., which uses an RP-HPLC method with an ortho-phthaldialdehyde (OPA)-derivatisation and fluorescence detection suited for automation. The HPLC analysis method used a 250 mm×4.6 mm C18 column (GROM-SIL 100 ODS-0 AB, Herrenberg, Germany) and detected the fluorescence excitation at 340 nm and emission at 455 nm. The peak identification of CML was confirmed by the retention time and standard addition and was quantified using an external standard. The amount of CML was calculated and expressed as a percentage.

RAW264.7 cells = experiment: Cell uptake of ^18F-CML and native CML in RAW264.7 cells; type: cell-based; details: incubation 2 hours
Procedure: as §1, §2, §3

NC(CCCCNCC(=O)O)C(=O)O (stereo not shown) [CML, N^ε-carboxymethyl-lysine]
Uptake ratio of unaltered CML, amount less than ^18F-CML (HepG2 cells; P<0.01): 0.2% | Uptake of unaltered CML (HepG2 cells; n=3): 6.3 µg/mg of cell protein | Uptake ratio of unaltered CML, amount less than ^18F-CML (RAW264.7 cells; P<0.01): 0.3% | Uptake of unaltered CML (RAW264.7 cells; n=3): 8.2 µg/mg of cell protein
